Assays:
Assay type in all cases: in vivo
[1] = tested on: Italian ryegrass (Lolium multiflorum); test: Test B pre-/postemergence plant response; conditions: 1000 g ai/ha, 0 to 100 scale (0 no effect, 100 complete control)
Method in brief: (§1)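 Greenhouse pots, loam/sand soil; compound formulated with surfactant in non-phytotoxic solvent. Preemergence soil spray and postemergence spray at 1–2 leaf stage run simultaneously. Visual injury, 0–100, about 10 days post-treatment.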

kochia (Kochia scoparia) = test: Test B pre-/postemergence plant response; conditions: 1000 g ai/ha, 0 to 100 scale (0 no effect, 100 complete control)
Method in brief: as §1

[2] = tested on: ragweed (common ragweed, Ambrosia elatior); test: Test B pre-/postemergence plant response; conditions: 1000 g ai/ha, 0 to 100 scale (0 no effect, 100 complete control)
Method in brief: as §1

[3] = tested on: barnyardgrass (Echinochloa crus-galli); test: Test C flooded paddy test plant response; conditions: Flood, 250 g ai/ha; scale of 0 to 100 where 0 is no effect and 100 is complete control; 13 to 15 days
Method in brief: (§2)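 Visual injury ratings (0, no effect; 100, complete control) were assigned after 13 to 15 days in a greenhouse, comparing treated plants with controls. Compounds had been added straight into paddy water over 2-leaf-stage plants flooded to 3 cm.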

[4] = tested on: ducksalad (Heteranthera limosa); test: Test C flooded paddy test plant response; conditions: Flood, 250 g ai/ha; scale of 0 to 100 where 0 is no effect and 100 is complete control; 13 to 15 days
Method in brief: as §2

rice (Oryza sativa) = test: Test C flooded paddy test plant response; conditions: Flood, 250 g ai/ha; scale of 0 to 100 where 0 is no effect and 100 is complete control; 13 to 15 days
Method in brief: as §2

[5] = tested on: small-flower umbrella sedge (Cyperus difformis); test: Test C flooded paddy test plant response; conditions: Flood, 250 g ai/ha; scale of 0 to 100 where 0 is no effect and 100 is complete control; 13 to 15 days
Method in brief: as §2

[6] = tested on: Italian ryegrass (Lolium multiflorum); test: Test D pre-/postemergence plant response; conditions: Postemergence; for Plant response rating (scale 0 to 100), Ryegrass, Italian: 16 g ai/ha; for Plant response rating, Ryegrass, Italian: 125 g ai/ha
Method in brief: (§3)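 Pre-/post-emergence greenhouse test. Pre: seeded loam+sand, sprayed same day. Post: 1–4 leaf plants (2–18 cm), peat/vermiculite mix. Formulation: non-phytotoxic solvent + surfactant. Scored visually d13–15, 0–100 vs control.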

corn (Zea mays) = test: Test D pre-/postemergence plant response; conditions: Postemergence; for Plant response rating (scale 0 to 100), Corn: 16 g ai/ha; for Corn plant response rating: 31 g ai/ha, scale 0 to 100 (0 no effect, 100 complete control); for Plant response rating, Corn: scale 0 to 100, 0 no effect, 100 complete control
Method in brief: as §3

[7] = tested on: galium (catchweed bedstraw, Galium aparine); test: Test D pre-/postemergence plant response; conditions: Postemergence; for Plant response rating (scale 0 to 100), Galium: 16 g ai/ha; for Galium plant response rating: 31 g ai/ha, scale 0 to 100 (0 no effect, 100 complete control); for Plant response rating, Galium: scale 0 to 100, 0 no effect, 100 complete control
Method in brief: as §3

[8] = tested on: lambsquarters (Chenopodium album); test: Test D pre-/postemergence plant response; conditions: Postemergence; for Plant response rating (scale 0 to 100), Lambsquarters: 16 g ai/ha; for Plant response rating, Lambsquarters: 125 g ai/ha
Method in brief: as §3

[9] = tested on: oilseed rape (Brassica napus); test: Test D pre-/postemergence plant response; conditions: Postemergence; for Plant response rating (scale 0 to 100), Oilseed Rape: 16 g ai/ha; for Plant response rating, Oilseed Rape: 125 g ai/ha
Method in brief: as §3

[10] = tested on: velvetleaf (Abutilon theophrasti); test: Test D pre-/postemergence plant response; conditions: Postemergence; for Plant response rating (scale 0 to 100), Velvetleaf: 16 g ai/ha; for Plant response rating, Velvetleaf: 125 g ai/ha
Method in brief: as §3

[11] = tested on: winter wheat (Triticum aestivum); test: Test D pre-/postemergence plant response; conditions: Postemergence; for Plant response rating (scale 0 to 100), Wheat: 16 g ai/ha; for Plant response rating, Wheat: 125 g ai/ha
Method in brief: as §3

[12] = 31 g ai/ha, scale 0 to 100 (0 no effect, 100 complete control)
[13] = 62 g ai/ha, scale 0 to 100, 0 no effect, 100 complete control
[14] = scale 0 to 100, 0 no effect, 100 complete control

## FCc1cc(-c2c(Br)cccc2Oc2ncc(Cl)cn2)no1 [Compound 191]
[1]; Postemergence
  Plant response rating, Ryegrass, Italian: 100
[1]; Preemergence
  Plant response rating, Ryegrass, Italian: 90
Kochia (Kochia scoparia); Postemergence
  Plant response rating, Kochia: 100
Kochia (Kochia scoparia); Preemergence
  Plant response rating, Kochia: 100
[2]; Postemergence
  Plant response rating, Ragweed: 90
[2]; Preemergence
  Plant response rating, Ragweed: 90
[3]
  Barnyardgrass plant response rating: 20
[4]
  Ducksalad plant response rating: 80
Rice (Oryza sativa)
  Rice plant response rating: 0
[5]
  Sedge, Umbrella plant response rating: 85
[6]
  Plant response rating (scale 0 to 100), Ryegrass, Italian: 0
[6]; [12]
  Ryegrass, Italian plant response rating: 0
[6]; [13]
  Ryegrass, Italian plant response rating: 0
[6]; [14]
  Plant response rating, Ryegrass, Italian: 5
Corn (Zea mays)
  Plant response rating (scale 0 to 100), Corn: 5
  Corn plant response rating: 5
Corn (Zea mays); 62 g ai/ha
  Plant response rating, Corn: 10
Corn (Zea mays); 125 g ai/ha
  Plant response rating, Corn: 10
[7]
  Plant response rating (scale 0 to 100), Galium: 40
  Galium plant response rating: 70
[7]; 62 g ai/ha
  Plant response rating, Galium: 85
[7]; 125 g ai/ha
  Plant response rating, Galium: 85
[8]
  Plant response rating (scale 0 to 100), Lambsquarters: 50
[8]; [12]
  Lambsquarters plant response rating: 70
[8]; [13]
  Lambsquarters plant response rating: 70
[8]; [14]
  Plant response rating, Lambsquarters: 85
[9]
  Plant response rating (scale 0 to 100), Oilseed Rape: 0
[9]; [12]
  Oilseed Rape plant response rating: 40
[9]; [13]
  Oilseed Rape plant response rating: 60
[9]; [14]
  Plant response rating, Oilseed Rape: 90
[10]
  Plant response rating (scale 0 to 100), Velvetleaf: 15
[10]; [12]
  Velvetleaf plant response rating: 30
[10]; [13]
  Velvetleaf plant response rating: 30
[10]; [14]
  Plant response rating, Velvetleaf: 50
[11]
  Plant response rating (scale 0 to 100), Wheat: 0
[11]; [12]
  Wheat plant response rating: 0
[11]; [13]
  Wheat plant response rating: 0
[11]; [14]
  Plant response rating, Wheat: 0

## Clc1cnc(Oc2ccccc2-c2cc(Cl)sn2)nc1 [Compound 192]
[1]; Postemergence
  Plant response rating, Ryegrass, Italian: 50
[1]; Preemergence
  Plant response rating, Ryegrass, Italian: 50
Kochia (Kochia scoparia); Postemergence
  Plant response rating, Kochia: 100
Kochia (Kochia scoparia); Preemergence
  Plant response rating, Kochia: 100
[2]; Postemergence
  Plant response rating, Ragweed: 60
[2]; Preemergence
  Plant response rating, Ragweed: 20
[3]
  Barnyardgrass plant response rating: 0
[4]
  Ducksalad plant response rating: 60
Rice (Oryza sativa)
  Rice plant response rating: 0
[5]
  Sedge, Umbrella plant response rating: 40
[6]
  Plant response rating (scale 0 to 100), Ryegrass, Italian: 0
[6]; [12]
  Ryegrass, Italian plant response rating: 0
[6]; [13]
  Ryegrass, Italian plant response rating: 0
[6]; [14]
  Plant response rating, Ryegrass, Italian: 0
Corn (Zea mays)
  Plant response rating (scale 0 to 100), Corn: 0
  Corn plant response rating: 0
Corn (Zea mays); 62 g ai/ha
  Plant response rating, Corn: 5
Corn (Zea mays); 125 g ai/ha
  Plant response rating, Corn: 10
[7]
  Plant response rating (scale 0 to 100), Galium: 35
  Galium plant response rating: 50
[7]; 62 g ai/ha
  Plant response rating, Galium: 50
[7]; 125 g ai/ha
  Plant response rating, Galium: 50
[8]
  Plant response rating (scale 0 to 100), Lambsquarters: 35
[8]; [12]
  Lambsquarters plant response rating: 50
[8]; [13]
  Lambsquarters plant response rating: 40
[8]; [14]
  Plant response rating, Lambsquarters: 75
[9]
  Plant response rating (scale 0 to 100), Oilseed Rape: 0
[9]; [12]
  Oilseed Rape plant response rating: 0
[9]; [13]
  Oilseed Rape plant response rating: 5
[9]; [14]
  Plant response rating, Oilseed Rape: 50
[10]
  Plant response rating (scale 0 to 100), Velvetleaf: 20
[10]; [12]
  Velvetleaf plant response rating: 20
[10]; [13]
  Velvetleaf plant response rating: 30
[10]; [14]
  Plant response rating, Velvetleaf: 55
[11]
  Plant response rating (scale 0 to 100), Wheat: 0
[11]; [12]
  Wheat plant response rating: 0
[11]; [13]
  Wheat plant response rating: 5
[11]; [14]
  Plant response rating, Wheat: 5
